Measurements as given in US20260242418A1, “CYCLIC PEPTIDES WITH ANTIBACTERIAL ACTIVITY AGAINST MULTIDRUG RESISTANT (MDR) PATHOGENS” (priority 2022, published 2026).
Read-outs that look alike come from different tables or passages of the source. Positions of bridges follow the written chain, without caps; N, C: chain ends. Non-standard residues stand in square brackets, D forms with d. Residues, ends and D or L forms follow the SMILES beside them. No end group written: not given here. dDab = NCC[C@@H](N)C(=O)O; Orn = NCCC[C@H](N)C(=O)O; Dab = NCC[C@H](N)C(=O)O

Assays:
Acinetobacter baumannii = type: cell-based
Description: (§1) Minimum Inhibitory Concentration (MIC) of a peptide of SEQ D NO: 4 (abbreviated PLP-3) and colistin against a collection of clinically relevant and commercially available bacterial strains was obtained via broth microdilution. The protocol for antimicrobial activity determination, detailed below, consisted in a modification of Clinical & Laboratory Standards Institute (CLSI) Guidelines.
(§2) MIC is the value defined as the lowest concentration of an antimicrobial, in these tests either PLP-3 or colistin, which inhibits the macroscopic growth of a bacterial strain after 18-22 h incubation at 37° C. The results from these assays are obtained via visual identification of the bacterial bottom at the end of the wells of the testing plate. Since the wells contain decreasing concentrations of the compounds, the final result is indicated as a concentration, MIC, expressed in μg/mL of the agent (in this case PLP-3 or colistin).
(§3) Bacterial strains were streaked in Columbia Agar plates (Columbia Agar with 5% Sheep Blood 90 mm Stacker plates, BD) and incubated overnight at 37° C. Polypropylene round bottomed 96-well plates were filled with 50 μL/well of Mueller-Hinton Broth (MHB, CM0405, 500 g, ThermoFisher Scientific™ Oxoid™) and 50 μL of either colistin or PLP-3 (at 4× the chosen initial concentration of the test) were added to the first well of each row of the plate followed by serial dilutions up until the 10th column of the plate.
(§4) Finally, strain inoculums were prepared by diluting 1:100 0.5 McFarland solutions in MHB. Plates were then inoculated with 50 μL of the inoculums and covered with film before 18 to 22 h incubation at 37 C.
(§5) Three biological and three technical replicates were performed per strain.
(§6) Broth microdilution testing of 15 strains of each species provided MIC50 and […] values (Table 4). Strains were either from clinical origin, relevant to current clinical situation, or commercially available strains belonging to the American Type Culture Collection (ATCC), namely: A. baumannii 17978 and 19606, K. pneumoniae 13883 and P. aeruginosa 27853.
(§7) This panel represents an example of relevant MDR, colistin resistant and colistin susceptible strains from which to compare results. The minimum inhibitory concentration (MIC) is the lowest concentration of a chemical, usually a drug, which prevents visible growth of a bacterium or bacteria. MIC50 represents the antimicrobial concentration value that inhibits the growth of 50% of the bacterial strains and […] of each species from the tested panel of strains. Being colistin both a peptide and a last-resource antibiotic, it was included in these assays for comparison against a commercially available antibiotic.

Klebsiella pneumoniae = type: cell-based
Description: as §1, §2, §3, §4, §5, §6, §7

Pseudomonas aeruginosa = type: cell-based
Description: as §1, §2, §3, §4, §5, §6, §7
P. aeruginosa ATCC 27853 strain (commercially available from the American Type Collection Culture) was used as control by performing MICs to colistin and PLP-3 in all broth microdilution assays

human cells = settings: cited from earlier work
[1] = in vivo, iv; cited from earlier work
[2] = panel of 15 A. baumannii strains
[3] = panel of 15 K. pneumoniae strains
[4] = panel of 15 P. aeruginosa strains

In the case of colistin [reference compound], the MIC50 (Acinetobacter baumannii; [2]) is reported as 0,5 μg/mL, the MIC90 (Acinetobacter baumannii; [2]) is reported as 64 µg/mL and the MIC (Acinetobacter baumannii; strain 8* (MDR)) is reported as 0.5 µg/mL. It also gave an MIC (Acinetobacter baumannii; strain 19* (MDR)) of 0.25 µg/mL, an MIC (Acinetobacter baumannii; strain 80* (MDR)) of 0.5 µg/mL and an MIC (Acinetobacter baumannii; strain 174* (MDR)) of 0.25 µg/mL. For the same molecule, the MIC (Acinetobacter baumannii; strain 180* (MDR)) was 0.5 µg/mL, the MIC (Acinetobacter baumannii; strain 210* (MDR)) was 8 µg/mL and the MIC (Acinetobacter baumannii; strain 226* (MDR)) was 0.25 µg/mL. The MIC (Acinetobacter baumannii; strain 253* (MDR)) was 0.25 µg/mL, the MIC (Acinetobacter baumannii; strain 317) was 0.25 µg/mL and the MIC (Acinetobacter baumannii; strain 383) was 0.25 µg/mL. For the same molecule, the MIC (Acinetobacter baumannii; strain 19606) was 0.5 µg/mL, the MIC (Acinetobacter baumannii; strain ATCC 17978) was 0.25 µg/mL and the MIC (Acinetobacter baumannii; strain CR17* (MDR)) was >64 µg/mL. The MIC (Acinetobacter baumannii; strain CR49) was 64 µg/mL, the MIC (Acinetobacter baumannii; strain CR86) was 64 µg/mL and the MIC50 (Klebsiella pneumoniae; [3]) was 8 µg/mL. For the same molecule, the MIC90 (Klebsiella pneumoniae; [3]) was >64 µg/mL, the MIC (Klebsiella pneumoniae; strain 145* (MDR)) was 32 µg/mL and the MIC (Klebsiella pneumoniae; strain 398* (MDR)) was >64 µg/mL. The MIC (Klebsiella pneumoniae; strain 545) was 0.25 µg/mL, the MIC (Klebsiella pneumoniae; strain 674* (MDR)) was 0.25 µg/mL and the MIC (Klebsiella pneumoniae; strain 681* (MDR)) was >64 µg/mL. For the same molecule, the MIC (Klebsiella pneumoniae; strain 716* (MDR)) was 0.5 µg/mL, the MIC (Klebsiella pneumoniae; strain 741* (MDR)) was 0.5 µg/mL and the MIC (Klebsiella pneumoniae; strain 851* (MDR)) was 0.5 µg/mL. The MIC (Klebsiella pneumoniae; strain 994* (MDR)) was >64 µg/mL, the MIC (Klebsiella pneumoniae; strain 1052* (MDR)) was >64 µg/mL and the MIC (Klebsiella pneumoniae; strain 1078* (MDR)) was 64 µg/mL. The MIC (Klebsiella pneumoniae; strain 1129* (MDR)) was 0.5 µg/mL, the MIC (Klebsiella pneumoniae; strain 1478* (MDR)) was >64 µg/mL and the MIC (Klebsiella pneumoniae; strain 1480* (MDR)) was 0.25 µg/mL. The MIC (Klebsiella pneumoniae; strain ATCC 13883) was 1 µg/mL, the MIC50 (Pseudomonas aeruginosa; [4]) was 0,5 μg/mL and the MIC90 (Pseudomonas aeruginosa; [4]) was 64 µg/mL. The MIC (Pseudomonas aeruginosa; strain 36a) was ≤0.125 µg/mL, the MIC (Pseudomonas aeruginosa; strain 38a) was 0.25 µg/mL and the MIC (Pseudomonas aeruginosa; strain ATCC 27853 (Table 2)) was ≤0.125 µg/mL. The MIC (Pseudomonas aeruginosa; strain ATCC 27853, control in the A. baumannii panel (Table 1)) was ≤0.125 µg/mL, the MIC (Pseudomonas aeruginosa; strain ATCC 27853, control in the K. pneumoniae panel (Table 3)) was 0.25 µg/mL and the MIC (Pseudomonas aeruginosa; strain C1) was 0.5 µg/mL. The MIC (Pseudomonas aeruginosa; strain C2) was 1 µg/mL, the MIC (Pseudomonas aeruginosa; strain C3) was 0.5 µg/mL and the MIC (Pseudomonas aeruginosa; strain C4) was 0.5 µg/mL. The MIC (Pseudomonas aeruginosa; strain R1) was >64 µg/mL, the MIC (Pseudomonas aeruginosa; strain R2) was 64 µg/mL and the MIC (Pseudomonas aeruginosa; strain R3* (MDR)) was 32 µg/mL. The MIC (Pseudomonas aeruginosa; strain S1) was ≤0.125 µg/mL, the MIC (Pseudomonas aeruginosa; strain S2* (MDR)) was ≤0.125 µg/mL and the MIC (Pseudomonas aeruginosa; strain S3) was 0.5 µg/mL. The MIC (Pseudomonas aeruginosa; strain S4) was ≤0.125 µg/mL and the MIC (Pseudomonas aeruginosa; strain S5) was ≤0.125 µg/mL.

In the case of “RGGRLCYCRRRFCVCVGR (disulfide 8-13, 6-15; listed as Sus scrofa) [PG-1]”, the “haemolysis and toxicity against human cells” value (human cells) is listed as “significant haemolysis and toxicity”.

For CC[C@H](C)[C@@H]1NC(=O)[C@H](Cc2c[nH]c3ccccc23)NC(=O)[C@H]([C@@H](C)O)NC(=O)[C@@H]2CCCN2C(=O)[C@H]2CCCN2C(=O)[C@H](CO)NC(=O)[C@H](C)NC(=O)[C@H](CCN)NC(=O)[C@H](CCN)NC(=O)[C@H](Cc2c[nH]c3ccccc23)NC(=O)[C@H](CCN)NC(=O)[C@@H](CCN)NC(=O)[C@H](CCCN)NC(=O)[C@H](CCN)NC1=O [Murepavadin, cyclo[Ala-Ser-D-Pro-Pro-Thr-Trp-Ile-Dab-Orn-D-Dab-Dab-Trp-Dab-Dab]] (cyclo(TWI[Dab][Orn][dDab][Dab]W[Dab][Dab]AS[dP]P)), the “adverse finding in phase-III clinical trials” value [1] is given as “kidney damage in over half of the patients”.
